{"source": "patent US20130059362A1", "about": "“BIOSENSORS COMPRISING PROTEIN-BINDING DOMAINS AND FLUORESCENT PROTEINS” (SIGMA-ALDRICH CO., LLC, priority 2010, published 2013)", "tested_on": "EGFR", "assay": "Ligand activation of EGFR monitored by relocalization of the 2×(SH2)Grb2 biosensor in live cells", "type": "cell-based, human", "conditions": "100 ng/mL; much less than EGF", "description": "The nucleic acid encoding TagGFP-2×(SH2)Grb2 was cloned into a lentiviral vector. Lentiviral particles were prepared and used to stably transfect A549 cells with the TagGFP:2×(SH2)Grb2 biosensor.\nThe cell nuclei were labeled with 1 μM DRAQ5.\nA variety of other ligands were tested for their ability to activate EGFR, as monitored by the SH2 biosensor. […] Most of the ligands were tested for activity with the TagGFP:2×(SH2)Grb2 biosensor in live cells. […]"}
{"substance": "HGF: a growth factor that binds HGFR", "values": [{"measurement": "Activity (relocalization of the SH2 biosensor)", "value": "showed activity"}]}
